The subject of one data set is Candida spp. Particulars: 15 strains (Table 10).
For data set [1], the system named is C. krusei. The following applies: MMX 7135; 24 hrs.
In data set [2] the test system is C. neoformans. The following applies: ATCC 90112; 72 hrs.
Data set [3] has as its system C. gattii. The following applies: ATCC MYA-4093; 72 hrs.
Data set [4] has as its system C. glabrata. The following applies: ATCC 90030; 24 hrs.
Data set [5] concerns C. albicans. The following applies: ATCC 90028 or 90029; 24 hrs.
Data set [6] relates to C. auris. The following applies: CDC 386; 24 hrs.
Data set [7] deals with C. tropicalis. The following applies: ATCC 90874; 24 hrs.
Data set [8] concerns C. parapsilosis. Particulars: ATCC 22019; 24 hrs.
Data set [9] in a line: Cytotoxicity in HepG2 cells, intracellular ATP assay. The following applies: human, EC50 cytotoxicity in HepG2, intracellular ATP assay, Table 16; 18-22 hrs exposure without FBS.
The subject of data set [10] is C. dubliniensis. The following applies: ATCC MYA-578; 24 hrs.
Data set [11] has as its system C. albicans. Put plainly: microbe, parasite or virus in culture. Particulars: Candida albicans, ATCC90028, 24 h, read-out: MIC C. albicans.
In data set [12] the test system is C. glabrata. Put plainly: microbe, parasite or virus in culture. Particulars: Nakaseomyces glabratus, ATCC90030, 24 h, read-out: MIC C. glabrata.
Data set [13] relates to C. krusei. Put plainly: microbe, parasite or virus in culture. Particulars: Pichia kudriavzevii, 24 h, read-out: MIC C. krusei.
Data set [14] has as its system C. dubliniensis. Put plainly: microbe, parasite or virus in culture. Particulars: Candida dubliniensis, 24 h, read-out: MIC C. dubliniensis.
In data set [15] the test system is C. tropicalis. Put plainly: microbe, parasite or virus in culture. The following applies: Candida tropicalis, ATCC90874, 24 h, read-out: MIC C. tropicalis.
In data set [16] the test system is Trichophyton rubrum ATCC MYA-4438. Put plainly: microbe, parasite or virus in culture. Particulars: read-out: MIC Trichophyton rubrum.
For data set [17], the system named is C. gattii. Put plainly: microbe, parasite or virus in culture. The following applies: Cryptococcus gattii, 72 h, read-out: MIC C. gattii.
For data set [18], the system named is Microsporum gypseum ATCC 14683. Put plainly: microbe, parasite or virus in culture. Particulars: Nannizzia gypsea, ATCC14683, read-out: MIC Microsporum gypseum.
For data set [19], the system named is C. auris. Put plainly: microbe, parasite or virus in culture. The following applies: Candidozyma auris, 24 h, read-out: MIC C. auris.
The subject of data set [20] is C. parapsilosis. Put plainly: microbe, parasite or virus in culture. Particulars: Lodderomyces parapsilosis, ATCC22019, 24 h, read-out: MIC C. parapsilosis.
The test system of another data set is Fusarium spp. Particulars: N = 3 strains; 48 hrs.
Data set [21] concerns C. neoformans. Put plainly: microbe, parasite or virus in culture. The following applies: Cryptococcus neoformans, ATCC90112, 72 h, read-out: MIC C. neoformans.
Data set [22] has as its system Epidermophyton floccosum ATCC 52066. Put plainly: microbe, parasite or virus in culture. The following applies: ATCC52066, read-out: MIC Epidermophyton floccosum.

The structures appear in SMILES notation. In brackets after ≈: the same amount, converted by molar mass. Non-standard residues stand in square brackets, D forms with d. Residues, ends and D or L forms follow the SMILES beside them. hArg = N=C(N)NCCCC[C@H](N)C(=O)O Some results are limits rather than exact numbers.

In general, EC50 refers to the concentration that produces a half-maximal response. Low values mean an effect from little substance, high ones a need for much substance.

Take `N=C(N)NCCCC[C@H](NC(=O)[C@@H](CCCNC(=N)N)NC(=O)[C@H](CCCCNC(=N)N)NC(=O)[C@@H](CCCNC(=N)N)NC(=O)[C@@H]1CCCN1C(=O)[C@H](CCCCNC(=N)N)NC(=O)[C@@H](CCCNC(=N)N)NC(=O)[C@H](CCCCNC(=N)N)NC(=O)[C@@H](CCCNC(=N)N)NC(=O)[C@@H]1CCCN1C(=O)[C@@H](CCCNC(=N)N)NC(=O)[C@H](CCCCNC(=N)N)NC(=O)[C@@H](CCCNC(=N)N)NC(=O)[C@@H]1CCCN1C(=O)[C@@H](CCCNC(=N)N)NC(=O)[C@H](CCCCNC(=N)N)NC(=O)[C@H](N)CCCNC(=N)N)C(N)=O` [SEQ ID NO: 88, r(Har)r-P-r(Har)r-P-r(Har)r(Har)-P-r(Har)r(Har)-NH2] (H-[dR][hArg][dR]P[dR][hArg][dR]P[dR][hArg][dR][hArg]P[dR][hArg][dR][hArg]-NH2): in the data set with Candida spp., the “MIC50 Candida species” value came out at 0.5 µg/mL (≈ 0.194 µM) and the “MIC90 Candida species” value was 1 µg/mL (≈ 0.388 µM). The “MIC C. krusei” value in the data set with C. krusei [1] turned out to be 0.5 µg/mL (≈ 0.194 µM). The “MIC C. neoformans” value against C. neoformans [2] was determined as 0.5 µg/mL (≈ 0.194 µM). In the data set with C. gattii [3], the “MIC C. gattii” value is 0.5 µg/mL (≈ 0.194 µM). Also, the “MIC C. glabrata” value with C. glabrata [4] is 0.5 µg/mL (≈ 0.194 µM). In addition, the “MIC C. albicans” value in the data set with C. albicans [5] was 0.5 µg/mL (≈ 0.194 µM). Also, the “MIC C. auris” value in the data set with C. auris [6] was determined as 0.5 µg/mL (≈ 0.194 µM). In addition, the “MIC C. tropicalis” value with C. tropicalis [7] came to 0.5 µg/mL (≈ 0.194 µM). Further, the “MIC C. parapsilosis” value in the data set on C. parapsilosis [8] is 0.25 µg/mL (≈ 0.0969 µM). Further, the EC50 in [9] was > 300 µg/mL. The “MIC C. dubliniensis” value against C. dubliniensis [10] was 0.5 µg/mL (≈ 0.194 µM).
Turning to `OC(Cn1cncn1)(Cn1cncn1)c1ccc(F)cc1F` [FLC, fluconazole], the MIC in the data set with C. albicans [11] came to 0.25 µg/mL (≈ 0.816 µM); with C. glabrata [12] it was 4 µg/mL (≈ 13.1 µM); in the data set with C. krusei [13], 8 µg/mL (≈ 26.1 µM); with C. dubliniensis [14], 0.5 µg/mL (≈ 1.63 µM); in the data set with C. tropicalis [15], 0.25 µg/mL (≈ 0.816 µM); in data set [16], 0.5 µg/mL (≈ 1.63 µM). The MIC in the data set with C. gattii [17] is 8 µg/mL (≈ 26.1 µM); in data set [18] it was 2 µg/mL (≈ 6.53 µM); in the data set with C. auris [19], > 32 µg/mL; in the data set on C. parapsilosis [20], 2 µg/mL (≈ 6.53 µM); in the data set on C. neoformans [21] it was 4 µg/mL (≈ 13.1 µM); in data set [22], 1 µg/mL (≈ 3.27 µM). Also, the “MIC Range Fusarium spp.” value against Fusarium spp. was >32 µg/mL.

Values taken from patent publication US20240360177A1, “PEPTIDES WITH ANTIMICROBIAL ACTIVITIES” (priority 2021, published 2024).
